Test results published in ChEMBL document CHEMBL1142856, “Design, synthesis, and structure-activity relationship of podocarpic acid amides as liver X receptor agonists for potential treatment of atherosclerosis” (Bioorg Med Chem Lett, 2005).

What was measured:
[1] = biological target: T1, Oxysterols receptor LXR-beta (Homo sapiens) (UniProt P55055)
T1 sequence (whole entry): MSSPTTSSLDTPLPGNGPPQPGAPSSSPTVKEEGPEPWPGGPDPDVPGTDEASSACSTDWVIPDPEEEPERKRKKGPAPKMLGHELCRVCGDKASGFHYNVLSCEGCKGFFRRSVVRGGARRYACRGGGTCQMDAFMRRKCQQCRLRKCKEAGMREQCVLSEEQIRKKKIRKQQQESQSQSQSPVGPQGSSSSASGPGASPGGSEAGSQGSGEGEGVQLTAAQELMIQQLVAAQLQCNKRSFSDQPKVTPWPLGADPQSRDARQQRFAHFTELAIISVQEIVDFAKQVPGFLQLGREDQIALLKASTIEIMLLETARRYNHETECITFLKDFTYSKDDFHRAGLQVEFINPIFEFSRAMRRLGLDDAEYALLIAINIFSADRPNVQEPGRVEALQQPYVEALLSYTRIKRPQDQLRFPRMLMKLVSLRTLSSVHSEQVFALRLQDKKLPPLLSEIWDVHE
Description: TA max fold induction against LXR beta

[2] = biological target: T2, Oxysterols receptor LXR-alpha (Homo sapiens) (UniProt Q13133)
T2 sequence (whole entry): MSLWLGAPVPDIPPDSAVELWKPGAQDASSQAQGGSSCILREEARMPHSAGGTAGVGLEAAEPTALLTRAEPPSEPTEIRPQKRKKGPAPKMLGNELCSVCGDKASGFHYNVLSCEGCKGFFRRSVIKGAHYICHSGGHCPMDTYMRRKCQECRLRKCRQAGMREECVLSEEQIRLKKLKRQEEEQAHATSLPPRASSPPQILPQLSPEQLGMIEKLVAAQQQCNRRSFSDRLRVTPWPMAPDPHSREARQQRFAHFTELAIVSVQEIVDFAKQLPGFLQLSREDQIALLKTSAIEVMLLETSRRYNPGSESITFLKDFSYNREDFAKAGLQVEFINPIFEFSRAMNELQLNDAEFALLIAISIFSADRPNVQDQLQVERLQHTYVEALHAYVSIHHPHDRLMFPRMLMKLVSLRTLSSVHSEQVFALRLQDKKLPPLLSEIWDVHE
Description: TA max fold induction against LXR alpha

[3] = biological target: T3, Oxysterols receptor LXR-beta (Homo sapiens, UniProt P55055); experiment: Effective concentration in recombinant human LXRbeta ligand binding domain in homogeneous time-resolved fluorescence assay
T3 sequence (P55055 whole entry): T1 sequence (whole entry)

[4] = biological target: T4, Oxysterols receptor LXR-alpha (Homo sapiens, UniProt Q13133); experiment: Effective concentration in recombinant human LXRalpha ligand binding domain in homogeneous time-resolved fluorescence assay
T4 sequence (Q13133 whole entry): T2 sequence (whole entry)

[5] = biological target: T3, Oxysterols receptor LXR-beta; experiment: Inhibitory concentration in LXRSPA beta binding assay
[6] = biological target: T4, Oxysterols receptor LXR-alpha; experiment: Inhibitory concentration in LXRSPA alpha binding assay

| SMILES | Induction [1] | Induction [2] | EC50 [3] [µM] | EC50 [4] [µM] | IC50 [5] [µM] | IC50 [6] [µM] |
| --- | --- | --- | --- | --- | --- | --- |
| CC(=O)Oc1ccc2c(c1)[C@@]1(C)CCCC(C)(C(=O)OC(=O)[C@@]3(C)CCC[C@]4(C)c5cc(OC(C)=O)ccc5CC[C@@H]34)[C@@H]1CC2 (stereo partly specified) | 54 | 60 | – | – | – | – |
| C=CCOC(=O)[C@@]1(C)CCC[C@]2(C)c3cc(O)ccc3CC[C@@H]12 | – | – | > 50 | > 50 | > 15 | > 15 |
